Reference: paper PMC5316407, “In vivo imaging of systemic transport and elimination of xenobiotics and endogenous molecules in mice” (Archives of Toxicology, 2016)
Several values for one entry are separate records, joined by “and”; a condition that tells them apart may be missing. Identical values can stand only once. Entries after “also recorded” stand apart in the source; their conditions may differ.

How the values were obtained:
Type in all cases: in vivo, mouse
[1] = Intravital two-photon imaging of hepatic transport after tail vein injection; conditions: for Half-life: liver
Method: (§1) In vivo recordings were acquired using a custom modified inverted LSM MP7 (Zeiss, Jena, Germany) provided with a two-photon Chameleon Ultra II laser with a tuning range from 680 to 1080 nm and a maximum power of approximately 3.5 W at 800 nm. […] Images were acquired with an LD C-Apochromat 40×/1.1 water immersion objective. The temperature of the specimen was controlled with a matt coated incubation chamber (Solent Scientific, Segensworth, UK).
(§2) For in vivo imaging, 6- to 10-week-old male mice were initially anaesthetized with an intraperitoneal injection of ketamine (64 mg/kg), xylazine (7.2 mg/kg), acepromazine (1.7 mg/kg) and buprenorphine (0.08 mg/kg). […] For liver preparation, the abdominal skin was removed and a small midline incision below the sternum was made with surgical scissors. Subsequently, the falciform ligament was cautiously cut in order to dissociate the liver. […] The cover slip was put in a custom-made image platform from Plexiglas and fit into the stage of the microscope. The exposed liver was then covered with saline-soaked gauze. The temperature control of the incubation chamber was set at 36 °C. The quality of mouse preparation was verified by checking the breathing rate of the mouse and by the regular blood flow in the observed region. For the preparation of the kidney, the mouse was placed on its right side and a small incision made in the left flank region. The convex side of the left kidney was exposed via gentle pressure on the abdominal wall. In order to avoid dryness, the exposed kidney was covered with saline-moistened gauze during imaging. For intestine imaging, an incision was made on the right side of the abdominal wall. The intestine was gently pulled out using a moistened cotton-tipped applicator. To reduce peristalsis, the intestine was incubated in a 1% atropine sulfate bath for 10 min. Subsequently, the intestine was placed in a glass bottom microwell dishes (MatTek corporation, MA, USA) containing 0.5% atropine sulfate bath during the entire recording period. In case of recordings exceeding 1 h, the mice were kept on maintenance anesthesia via a respiratory mask using an evaporator (IAS3801, FMI GmbH, Seeheim-Jugenheim, Germany) with 1–2% isoflurane and a subcutaneous injection of 0.5 ml saline was given.
(§3) Fluorescent markers or fluorescently labeled antibodies were injected via the tail vein before surgery or during recording via lateral tail vein catheters (SAI-infusion, IL, USA). […] All injected antibodies including anti-mouse CD11b, anti-mouse F4/80, anti-mouse NK1.1 and anti-mouse Ly6G (eBioscience, CA, USA) were phycoerythrin conjugated and administered in 100 µl PBS.
(§4) Recorded videos were quantified with the Zen software (Zeiss). Fluorescence intensity was quantified in defined regions of interest.
(§5) Pharmacokinetic analyses were performed with the MoBi® Toolbox for MATLAB (version 6.0.3; Bayer Technology Services GmbH, Leverkusen, Germany). PK-Sim® and MoBi® are freely available for non-commercial academic use.

[2] = Intravital two-photon imaging of intestinal transport (duodenum, capillaries to lacteal)
Method: as §1
as §2, with “Subsequently, the intestine was placed in a glass bottom microwell dishes (MatTek corporation, MA, USA) containing 0.5% atropine sulfate bath during the entire recording period. In case of recordings exceeding 1 h, the mice were kept on maintenance anesthesia via a respiratory mask using an evaporator (IAS3801, FMI GmbH, Seeheim-Jugenheim, Germany) with 1–2% isoflurane and a subcutaneous injection of 0.5 ml saline was given.” left out
Recorded videos were quantified with the Zen software (Zeiss). Fluorescence intensity was quantified in defined regions of interest. […]

[3] = Intravital two-photon imaging of glomerular filtration and tubular transport in the kidney; conditions: for Tmax: individual renal tubule; for Half-life: kidney
Method: as §1, §2, §3, §4, §5

Time to maximum homogenous signal in the cytosol of the hepatocytes ([1]; after intravenous injection of 2.5 mg/kg): ~5 min
Enrichment in the LSEC/space of Dissé ([1]; after tail vein injection): transient enrichment
Half-life ([1]; LSEC/Dissé space): 13.46 min
Half-life ([1]; hepatocytes, nd^a = not detectable due to transportation in vesicles): 34.17 min
Half-life ([1]; sinusoids, fluorescence intensity after tail vein injection (CLF 2.5 mg/kg, dextran 30 mg/kg)): 1.9 min and 1.89 min
Appearance in the liver sinusoids after tail vein injection ([1]; time after tail vein injection): approximately 15 s
Transport from intestinal capillaries into intestinal crypt cells and secretion into the intestinal lumen ([2]; after intravenous injection): No transport
Half-life ([2]; intestine, blood vessels): 1.45 min
Tmax ([3]; Fig. 7, Tubule: 1): 0.38 min
Tmax ([3]; Fig. 7, Tubule: 2): 0.38 min
Tmax ([3]; Fig. 7, Tubule: 3): 0.40 min
Tmax ([3]; Fig. 7, Tubule: 4): 0.75 min
Tmax ([3]; Fig. 7, Tubule: 5): 0.45 min
Tmax ([3]; Fig. 7, Tubule: 6): 0.35 min
Tmax ([3]; Fig. 7, Tubule: 7): 3.22 min
Tmax ([3]; Fig. 7, Tubule: 8): 2.82 min
Tmax ([3]; Fig. 7, Tubule: 9): 3.34 min
Tmax ([3]; Fig. 7, Tubule: 10): 3.34 min
Tmax ([3]; Fig. 7, Tubule: 11): 0.40 min
Tmax ([3]; Fig. 7, Tubule: 12): 0.50 min
Tmax ([3]; Fig. 7, Tubule: 13): 3.24 min
Tmax ([3]; Fig. 7, Tubule: 14): 0.37 min
Tmax ([3]; Fig. 7, Tubule: 15): 3.19 min
Half-life ([3]; Bowman's space): 2.19 min
Half-life ([3]; glomerular capillaries): 2.3 min and 2.33 min
Half-life ([3]; proximal tubule): 4.88 min
Time to maximum (T max) fluorescence, distal tubules ([3]; tubular lumina, range over imaged tubules): 2.82 to 3.34 min
SMILES: CC(CCC(=O)NC(CCCCNC(=S)Nc1ccc(-c2c3ccc(=O)cc-3oc3cc(O)ccc23)c(C(=O)O)c1)C(=O)O)C1CCC2C3C(O)CC4CC(O)CCC4(C)C3CC(O)C12C (stereo not shown) [CLF, cholyl-lysyl-fluorescein]
Transfer from intestinal blood capillaries into lymphatic vessels (lacteals), blood-lacteal barrier ([2]; after intravenous injection): found in traces in the lymphatic vessels; also recorded: virtually impermeable
